Test results from patent US8778939B2, “Compounds” (Glaxo Group Limited, priority 2009, dated 2014).

Columns and labels:
[1] = target: T1, 6His-Tev-LRRK2 (1326-2527) (Homo sapiens, UniProt Q5S007); assay: LRRK2 peptide substrate assay; format: biochemical; settings: Biotin-LRRKtide peptide substrate, ATP at Km
T1 construct: A LRRK2 cDNA encoding residues 1326-2527 was received from Dundee University; made in house; host or cells: Spodoptera frugiperda (Sf9) insect cells, baculovirus
T1 sequence (Q5S007 1326-2527): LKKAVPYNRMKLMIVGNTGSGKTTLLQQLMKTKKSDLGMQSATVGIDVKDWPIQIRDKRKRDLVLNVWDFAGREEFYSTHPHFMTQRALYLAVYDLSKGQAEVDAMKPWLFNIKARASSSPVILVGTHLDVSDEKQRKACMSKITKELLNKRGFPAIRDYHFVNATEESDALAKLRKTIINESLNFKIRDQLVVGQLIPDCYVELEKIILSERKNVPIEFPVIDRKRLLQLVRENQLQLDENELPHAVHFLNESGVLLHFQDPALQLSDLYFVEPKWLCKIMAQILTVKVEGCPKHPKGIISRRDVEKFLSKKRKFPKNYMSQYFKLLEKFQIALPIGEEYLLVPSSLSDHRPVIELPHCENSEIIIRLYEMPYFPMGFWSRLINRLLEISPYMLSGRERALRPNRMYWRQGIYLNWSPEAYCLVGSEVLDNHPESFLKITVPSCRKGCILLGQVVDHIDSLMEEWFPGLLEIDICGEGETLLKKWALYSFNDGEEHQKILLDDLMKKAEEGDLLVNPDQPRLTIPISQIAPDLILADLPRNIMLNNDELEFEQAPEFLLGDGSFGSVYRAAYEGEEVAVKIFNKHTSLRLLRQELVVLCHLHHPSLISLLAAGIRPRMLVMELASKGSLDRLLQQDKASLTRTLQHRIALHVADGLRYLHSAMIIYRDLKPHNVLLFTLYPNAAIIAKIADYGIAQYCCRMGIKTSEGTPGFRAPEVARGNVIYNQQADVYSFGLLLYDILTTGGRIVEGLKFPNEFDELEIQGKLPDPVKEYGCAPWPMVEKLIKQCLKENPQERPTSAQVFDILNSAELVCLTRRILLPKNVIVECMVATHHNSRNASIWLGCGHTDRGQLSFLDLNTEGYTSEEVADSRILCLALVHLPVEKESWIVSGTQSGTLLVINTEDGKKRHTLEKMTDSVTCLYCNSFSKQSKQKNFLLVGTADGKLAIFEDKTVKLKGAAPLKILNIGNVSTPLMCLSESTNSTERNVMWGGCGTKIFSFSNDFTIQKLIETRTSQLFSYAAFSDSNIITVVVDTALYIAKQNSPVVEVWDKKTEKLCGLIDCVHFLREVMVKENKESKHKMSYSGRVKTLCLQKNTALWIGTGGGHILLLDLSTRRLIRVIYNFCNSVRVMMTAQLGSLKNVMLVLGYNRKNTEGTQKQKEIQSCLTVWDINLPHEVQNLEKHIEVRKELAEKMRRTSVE
Protocol: Compounds of formula (I) may be tested for in vitro kinase activity in accordance with the following assays, using the non natural, in vitro, substrates moesin and the Longer Biotin-LRRKtide. Moesin and a shorter version of the peptide were identified as substrates in Jaleel et al, (2007, Biochem J, 405: 307-317).
LRRK2 Peptide Substrate Assay
(§1) a) 100 nl of a 1:4 serial dilution of test compound with a top final assay concentration of 30 μM is added to certain wells in a low volume 384 well black plate. 100 nl of DMSO is used in certain wells as controls.
b) 3 μl enzyme solution (80 nM purified recombinant 6His-Tev-LRRK2 (1326-2527) in assay buffer: 50 mM Hepes (pH 7.2), 10 mM MgCl2, 150 mM NaCl, 5% glycerol, 0.0025% triton X-100 and 1 mM DTT) is added to certain wells. […] Plates are then incubated for a further 1-2 hours at room temperature (incubation time varies depending upon rate and linearity of reaction with differing enzyme batches). d) 6 μl detection solution (50 nM Streptavidin SureLight® APC (PerkinElmer), 4 nM Eu-W1024 labelled anti-rabbit IgG antibody (PerkinElmer), 1:500 dilution (dilution determined on a batch to batch basis) of Phospho-Ezrin (Thr567)/Radixin (Thr564)/Moesin (Thr558) Polyclonal Antibody (New England Biolabs) and 60 mM EDTA in buffer: 40 mM Hepes (pH 7.2), 150 mM NaCl, 0.03% BSA) is added to each well. Plates are then incubated for a further 2 hours at room temperature before reading on a suitable plate reader (Excitation 330 nm, emission 620 nm (Eu) and 665 nm (APC)). Data is analysed using ActivityBase software (IDBS). LRRK2 AlphaScreen Protein Substrate Assay

[2] = target: T1, 6His-Tev-LRRK2 (1326-2527); assay: LRRK2 AlphaScreen desensitised protein substrate assay; format: biochemical
Protocol: as §1
b) 3 μl enzyme solution (80 nM purified recombinant 6His-Tev-LRRK2 (1326-2527) in assay buffer: 50 mM Hepes (pH 7.2), 10 mM MgCl2, 150 mM NaCl, 5% glycerol, 0.0025% triton X-100 and 1 mM DTT) is added to certain wells.
Plates are then incubated for a further 1-2 hours at room temperature (incubation time varies depending upon rate and linearity of reaction with differing enzyme batches).
d) 6 μl detection solution (1:250 dilution of AlphaLisa Protein A Acceptor beads (PerkinElmer), 1:64 dilution of AlphaLisa Gluthathione Donor beads (PerkinElmer) and 1:600 dilution (dilution determined on a batch to batch basis) of Phospho-Ezrin (Thr567)/Radixin (Thr564)/Moesin (Thr558) Polyclonal Antibody (New England Biolabs) in a buffer: 50 mM Hepes (pH 7.5), 250 mM NaCl, 60 mM EDTA, 1% PEG and 0.01% Brij 35) is added to each well. Plates are then incubated for a further 2 hours at room temperature in the dark before reading on an EnVision™ plate reader with AlphaScreen HTS turbo option module and AlphaScreen settings. Data is analysed using ActivityBase software (IDBS).
LRRK2 AlphaScreen Desensitised Protein Substrate Assay
This is conducted as described for the LRRK2 alphascreen protein substrate assay, with the following differences: • 1. The concentration of ATP in the substrate solution was 2 mM. • 2. The plates were incubated for 20 minutes at room temperature following addition of the substrate solution. Pharmacological Data

[3] = read-out: pIC50 in the LRRK2 peptide substrate assay (converted)
[4] = excess of ATP present (2 mM ATP), read-out: pIC50 in the LRRK2 alphascreen desensitised protein substrate assay (converted)

SMILES	IC50 [1, 3]	IC50 [2, 4]	IC50 ([1]; mean pIC50, read-out: LRRK2 peptide substrate assay (pIC50) (converted))	IC50 ([2]; mean pIC50, GST-PS-Moesin (400-577) substrate, 2 mM ATP (excess of ATP present), read-out: LRRK2 alphascreen desensitised protein substrate assay (pIC50) (converted))
O=C(Nc1ccnnc1)c1cc(-c2ccncc2)ccc1OCc1ccc(F)cc1 [Example 89, 2-{[(4-Fluorophenyl)methyl]oxy}-N-4-pyridazinyl-5-(4-pyridinyl)benzamide]	≤ 10 nM	≤ 20000 nM	–	–
O=C(Nc1cccnc1)c1cc(-c2ccncc2)ccc1OCc1ccc(F)cc1 [Example 90, 2-{[(4-Fluorophenyl)methyl]oxy}-N-3-pyridinyl-5-(4-pyridinyl)benzamide]	≤ 10 nM	≤ 20000 nM	–	–
O=C(Nc1ccnnc1)c1cc(-c2cn[nH]c2)ccc1OCc1ccc(F)cc1 [Example 92, 2-{[(4-Fluorophenyl)methyl]oxy}-5-(1H-pyrazol-4-yl)-N-4-pyridazinylbenzamide]	≤ 10 nM	≤ 20000 nM	–	–
Cn1cc(-c2ccc(OCc3ccc(F)cc3)c(C(=O)Nc3ccnnc3)c2)cn1 [Example 94, 2-{[(4-Fluorophenyl)methyl]oxy}-5-(1-methyl-1H-pyrazol-4-yl)-N-4-pyridazinylbenzamide]	≤ 100 nM	≤ 20000 nM	12.6 nM	100 nM
Cn1nccc1-c1ccc(OCc2ccc(F)cc2)c(C(=O)Nc2cccnc2)c1 [Example 95, 2-{[(4-Fluorophenyl)methyl]oxy}-5-(1-methyl-1H-pyrazol-5-yl)-N-3-pyridinylbenzamide]	≤ 100 nM	≤ 20000 nM	–	–
O=C(Nc1cncc(F)c1)c1cc(Br)ccc1OCc1ccccc1 [Example 98, 5-Bromo-N-(5-fluoro-3-pyridinyl)-2-[(phenylmethyl)oxy]benzamide]	≤ 100 nM	> 25100 nM	–	–
O=C(Nc1cccnc1)c1cc(-c2cn[nH]c2)ccc1OCc1ccccc1 [Example 99, 2-[(Phenylmethyl)oxy]-5-(1H-pyrazol-4-yl)-N-3-pyridinylbenzamide]	≤ 10 nM	≤ 20000 nM	–	–
O=C(Nc1cccnc1)c1cc(-c2cccnc2)ccc1OCc1ccccc1 [Example 101, 2-[(Phenylmethyl)oxy]-N,5-di-3-pyridinylbenzamide]	≤ 10 nM	≤ 20000 nM	–	–
O=C(Nc1cncc(F)c1)c1cc(-c2ccncc2)ccc1OCc1ccccc1 [Example 102, N-(5-Fluoro-3-pyridinyl)-2-[(phenylmethyl)oxy]-5-(4-pyridinyl)benzamide]	≤ 100 nM	> 25100 nM	–	–
C[C@@H]1CN(c2ccc(OCc3ccccc3)c(C(=O)Nc3cccnc3)c2)C[C@H](C)N1C [Example 103, 2-[(Phenylmethyl)oxy]-N-3-pyridinyl-5-[(3R,5S)-3,4,5-trimethyl-1-piperazinyl]benzamide]	≤ 10 nM	≤ 20000 nM	–	–
O=C(Nc1cccnc1)c1cc(-c2ccnc(F)c2)ccc1OCc1ccccc1 [Example 104, 5-(2-Fluoro-4-pyridinyl)-2-[(phenylmethyl)oxy]-N-3-pyridinylbenzamide]	≤ 10 nM	≤ 20000 nM	–	–
Cn1cc(-c2ccc(OCc3ccc(F)c(F)c3)c(C(=O)Nc3ccnnc3)c2)cn1 [Example 105, 2-{[(3,4-Difluorophenyl)methyl]oxy}-5-(1-methyl-1H-pyrazol-4-yl)-N-4-pyridazinylbenzamide]	≤ 100 nM	≤ 20000 nM	–	–
O=C(Nc1ccnnc1)c1cc(-c2ccncc2)ccc1OCc1ccc(F)c(F)c1 [Example 106, 2-([(3,4-Difluorophenyl)methyl]oxy)-N-4-pyridazinyl-5-(4-pyridinyl)benzamide]	≤ 100 nM	≤ 20000 nM	–	–
O=C(Nc1cccnc1)c1cc(-c2ccn[nH]2)ccc1OCc1ccc(F)c(F)c1 [Example 107, 2-{[(3,4-Difluorophenyl)methyl]oxy}-5-(1H-pyrazol-5-yl)-N-3-pyridinylbenzamide]	≤ 10 nM	≤ 20000 nM	–	–
O=C(Nc1ccnnc1)c1cc(-c2cn[nH]c2)ccc1OCc1ccc(F)c(F)c1 [Example 108, 2-{[(3,4-Difluorophenyl)methyl]oxy}-5-(1H-pyrazol-4-yl)-N-4-pyridazinylbenzamide]	≤ 100 nM	≤ 20000 nM	–	–
O=C(Nc1cccnc1)c1cc(-c2ccncc2)ccc1OCc1ccc(F)c(F)c1 [Example 109, 2-{[(3,4-Difluorophenyl)methyl]oxy}-N-3-pyridinyl-5-(4-pyridinyl)benzamide]	≤ 100 nM	≤ 20000 nM	–	–
Cn1cc(-c2ccc(OCc3ccc(F)c(F)c3)c(C(=O)Nc3cccnc3)c2)cn1 [Example 110, 2-{[(3,4-Difluorophenyl)methyl]oxy)-5-(1-methyl-1H-pyrazol-4-yl)-N-3-pyridinylbenzamide]	≤ 100 nM	≤ 20000 nM	–	–
O=C(Nc1cccnc1)c1cc(CN2CCOCC2)ccc1OCc1ccc(F)c(F)c1 [Example 112, 2-{[(3,4-Difluorophenyl)methyl]oxy}-5-(4-morpholinylmethyl)-N-3-pyridinylbenzamide]	≤ 100 nM	≤ 20000 nM	–	–
Cn1cc(-c2ccc(OCc3ccccc3C#N)c(C(=O)Nc3cccnc3)c2)cn1 [Example 113, 2-{[(2-Cyanophenyl)methyl]oxy}-5-(1-methyl-1H-pyrazol-4-yl)-N-3-pyridinylbenzamide]	≤ 100 nM	≤ 20000 nM	–	–
COc1cccc(COc2ccc(-c3cnn(C)c3)cc2C(=O)Nc2cccnc2)c1 [Example 115, 2-({[3-(Methyloxy)phenyl]methyl}oxy)-5-(1-methyl-1H-pyrazol-4-yl)-N-3-pyridinylbenzamide]	≤ 100 nM	≤ 20000 nM	–	–
Cn1cc(-c2ccc(OCc3ccc(F)cc3F)c(C(=O)Nc3cccnc3)c2)cn1 [Example 116, 2-{[(2,4-Difluorophenyl)methyl]oxy}-5-(1-methyl-1H-pyrazol-4-yl)-N-3-pyridinylbenzamide]	≤ 10 nM	≤ 20000 nM	–	–
